Experimental data as given in PubChem BioAssay AID1845217 (Molecular Pharmacology Branch, DTP, NCI, 2023).

Tested on: VA-ES-BJ tumor spheroid viability
Assay: Anticancer human tumor VA-ES-BJ cell line growth inhibition;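 also: spheroids exposed to compounds for seven days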;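 as to viability, T/C: percent of DMSO vehicle control viability so 100% = untreated growth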
Conditions: spheroids with HUVEC and MSC; for IC50: curve of first compound; for viability, T/C: stronger effect = lower value
Method in brief: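 Complex tumor spheroids combined malignant cells with endothelial cells and mesenchymal stem cells. DNA-damaging drugs and DNA repair inhibitors were tested alone and in combination, at half-log dilutions down from clinical Cmax (top 10 microM if Cmax unknown), 0.25% DMSO final.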

[1] = second compound 30 pM, first compound 0.00949 µM
[2] = second compound 30 pM, first compound 0.03 µM
[3] = second compound 30 pM, first compound 0.0949 µM
[4] = second compound 30 pM, first compound 0.3 µM
[5] = second compound 30 pM, first compound 0.949 µM
[6] = second compound 30 pM, first compound 3 µM
[7] = second compound 94.9 pM, first compound 0.00949 µM
[8] = second compound 94.9 pM, first compound 0.03 µM
[9] = second compound 94.9 pM, first compound 0.0949 µM
[10] = second compound 94.9 pM, first compound 0.3 µM
[11] = second compound 94.9 pM, first compound 0.949 µM
[12] = second compound 94.9 pM, first compound 3 µM
[13] = second compound 0.0003 µM, first compound 0.00949 µM
[14] = second compound 0.0003 µM, first compound 0.03 µM
[15] = second compound 0.0003 µM, first compound 0.0949 µM
[16] = second compound 0.0003 µM, first compound 0.3 µM
[17] = second compound 0.0003 µM, first compound 0.949 µM
[18] = second compound 0.0003 µM, first compound 3 µM
[19] = second compound 0.000949 µM, first compound 0.00949 µM
[20] = second compound 0.000949 µM, first compound 0.03 µM
[21] = second compound 0.000949 µM, first compound 0.0949 µM
[22] = second compound 0.000949 µM, first compound 0.3 µM
[23] = second compound 0.000949 µM, first compound 0.949 µM
[24] = second compound 0.000949 µM, first compound 3 µM
[25] = second compound 0.003 µM, first compound 0.00949 µM
[26] = second compound 0.003 µM, first compound 0.03 µM
[27] = second compound 0.003 µM, first compound 0.0949 µM
[28] = second compound 0.003 µM, first compound 0.3 µM
[29] = second compound 0.003 µM, first compound 0.949 µM
[30] = second compound 0.003 µM, first compound 3 µM

Row | SMILES | IC50 (second compound 30 pM) [nM] | IC50 (second compound 94.9 pM) [nM] | IC50 (second compound 0.0003 µM) [nM] | IC50 (second compound 0.000949 µM) [nM] | IC50 (second compound 0.003 µM) [nM] | viability, T/C [3] [%] | viability, T/C [4] [%] | viability, T/C [5] [%] | viability, T/C [6] [%] | viability, T/C [9] [%] | viability, T/C [10] [%] | viability, T/C [11] [%] | viability, T/C [12] [%] | viability, T/C [15] [%] | viability, T/C [16] [%] | viability, T/C [17] [%] | viability, T/C [18] [%] | viability, T/C [21] [%] | viability, T/C [22] [%] | viability, T/C [23] [%] | further results
1 | CNCc1ccc(-c2cc(-c3nc(-c4ccc(S(=O)(=O)C(C)C)cc4)cnc3N)on2)cc1 + COc1cc2c(cc1O)CCNC21CSC2c3c(OC(C)=O)c(C)c4c(c3C(COC1=O)N1C(O)C3Cc5cc(C)c(OC)c(O)c5C(C21)N3C)OCO4 | 260 | 122 | < 9.49 | < 9.49 | < 9.49 | 82.8 | 45.7 | 7.78 | 1.72 | 51.1 | 34.1 | 6.4 | 1.3 | 36.5 | 23.9 | 5.48 | 1.1 | 4.65 | 1.83 | 0.95 | viability, T/C [1]: 91.9%; viability, T/C [2]: 90%; viability, T/C [7]: 85.9%; viability, T/C [8]: 79.8%; viability, T/C [13]: 47.9%; viability, T/C [14]: 44.7%; viability, T/C [19]: 3.65%; viability, T/C [20]: 3.36%; viability, T/C [24]: 1.89%; viability, T/C [25]: 1.45%; viability, T/C [26]: 1.2%; viability, T/C [27]: 0.99%; viability, T/C [28]: 1.37%; viability, T/C [29]: 1.15%; viability, T/C [30]: 0.13%
2 | Cc1sc2c(c1C)C(c1ccc(Cl)cc1)=NC(CC(=O)Nc1ccc(O)cc1)c1nnc(C)n1-2 (stereo not given) + COc1cc2c(cc1O)CCNC21CSC2c3c(OC(C)=O)c(C)c4c(c3C(COC1=O)N1C(O)C3Cc5cc(C)c(OC)c(O)c5C(C21)N3C)OCO4 | 78 | 58.6 | < 9.49 | < 9.49 | < 9.49 | 48.9 | 27.4 | 24 | 17.5 | 42.3 | 27.3 | 21.3 | 10.5 | 23.7 | 13.7 | 6.9 | 2.06 | 5.43 | 1.01 | 0.08 | viability, T/C [1]: 83.6%; viability, T/C [2]: 65.8%; viability, T/C [7]: 79.4%; viability, T/C [8]: 60.9%; viability, T/C [13]: 38.7%; viability, T/C [14]: 32.4%; viability, T/C [19]: 8.09%; viability, T/C [20]: 2.88%; viability, T/C [24]: 0.14%; viability, T/C [25]: 1.18%; viability, T/C [26]: 1.31%; viability, T/C [27]: 1.36%; viability, T/C [28]: 1.87%; viability, T/C [29]: 2.19%; viability, T/C [30]: 3.69%
3 | Cn1ncnc1[C@H]1c2n[nH]c(=O)c3cc(F)cc(c23)N[C@@H]1c1ccc(F)cc1 + COc1cc2c(cc1O)CCNC21CSC2c3c(OC(C)=O)c(C)c4c(c3C(COC1=O)N1C(O)C3Cc5cc(C)c(OC)c(O)c5C(C21)N3C)OCO4 | 329 | 155 | < 9.49 | < 9.49 | < 9.49 | 67.9 | 54.9 | 29.8 | 6.51 | 52.8 | 42.1 | 24 | 6.18 | 23.9 | 19.7 | 8.26 | 4.82 | 2.49 | 3.23 | 1.4 | viability, T/C [1]: 92.8%; viability, T/C [2]: 79.3%; viability, T/C [7]: 67.8%; viability, T/C [8]: 70.4%; viability, T/C [13]: 33.9%; viability, T/C [14]: 29.3%; viability, T/C [19]: 3.64%; viability, T/C [20]: 3.04%; viability, T/C [24]: 0.45%; viability, T/C [25]: 1.48%; viability, T/C [26]: 1.15%; viability, T/C [27]: 1.53%; viability, T/C [28]: 2.52%; viability, T/C [29]: 1.19%; viability, T/C [30]: 2.91%
4 | O=C(c1cc(Cc2n[nH]c(=O)c3ccccc23)ccc1F)N1CCN(C(=O)C2CC2)CC1 + COc1cc2c(cc1O)CCNC21CSC2c3c(OC(C)=O)c(C)c4c(c3C(COC1=O)N1C(O)C3Cc5cc(C)c(OC)c(O)c5C(C21)N3C)OCO4 | 19000 | 11100 | < 94.9 | < 94.9 | < 94.9 | 86 | 95.8 | 99 | 91 | 90.5 | 84.7 | 86.9 | 76.9 | 44.3 | 40.7 | 43.6 | 33.2 | 3.35 | 2.46 | 3.04 | viability, T/C (second compound 30 pM, first compound 9.49 µM): 65%; viability, T/C (second compound 30 pM, first compound 30 µM): 40.1%; viability, T/C (second compound 94.9 pM, first compound 9.49 µM): 54.1%; viability, T/C (second compound 94.9 pM, first compound 30 µM): 24.4%; viability, T/C (second compound 0.0003 µM, first compound 9.49 µM): 16.1%; viability, T/C (second compound 0.0003 µM, first compound 30 µM): 5.05%; viability, T/C [24]: 2.86%; viability, T/C (second compound 0.000949 µM, first compound 9.49 µM): 1.46%; viability, T/C (second compound 0.000949 µM, first compound 30 µM): 0.33%; viability, T/C [27]: 1.2%; viability, T/C [28]: 1.64%; viability, T/C [29]: 1.77%; viability, T/C [30]: 2.03%; viability, T/C (second compound 0.003 µM, first compound 9.49 µM): 3.45%; viability, T/C (second compound 0.003 µM, first compound 30 µM): 4.01%
